These results are taken from patent EP0369035A1, “AGENT FOR TREATING PANCREATITIS OR THE LIKE” (priority 1988, dated 1989).

One data set concerns the target human urokinase (Homo sapiens, UniProt P00749). Put plainly: Anti-urokinase activity: inhibition of S-2444 degradation. As to conditions: substrate S-2444, 37°C, pH 8.8; read-out: Urokinase S-2444 (I50). Format: biochemical. On the procedure: 3) Assay of anti-urokinase activity Assay method of inhibition of S-2444 degradation
The test substance was dissolved in a 0.05 M Tris-HC1 (pH 8.8) buffer to make a total volume of 400 µl, and 50 µl of a 1 mM S-2444 solution was added to the mixture. After incubation at 37°C for 5 minutes in an incubator, an addition of 50 µl of 500 units/ml human urokinase solution, and incubation at 37°C for 5 minutes, the reaction was terminated by an addition of 50 µl of 50% acetic acid.

Data set [1] has as its system experimental pancreatitis. Put plainly: Effect on experimental pancreatitis (sodium taurochorate + trypsin into the common bile duct), survival ratio. Format: in vivo, SD-rats. Details: Effect on experimental pancreatitis (100 mg/kg p.o.) After 24 hours / Effect on experimental pancreatitis (100 mg/kg p.o.) After 48 hours / Effect of existing control drug on experimental pancreatitis After 24 hours: unit not given here. The note with it: rat; for Effect on experimental pancreatitis Survival ratio(%) After 24 hours / Effect on experimental pancreatitis Survival ratio(%) After 48 hours: 80 μg/kg/min. x 80 min. continuous infusion; for Effect on experimental pancreatitis (100 mg/kg p.o.) After 24 hours / Effect on experimental pancreatitis (100 mg/kg p.o.) After 48 hours: 100 mg/kg p.o. 30 minutes before pancreatitis. The source says: [II] Effect on experimental pancreatitis
SD-rats, body weight of about 200 g were, starved overnight, and 10 to 24 animals were used in one group. Sodium pentobarbital was intraperioneally administered to anesthetize each rat, and then a cannula was inserted to the femoral vein for the administration of the test substance. After abdominal surgery, the bile duct was blocked at a part thereof proximate to the liver, by a clip, a polyethylene tube was inserted to the common bile duct at a part thereof most proximate to the duodenum, and 0.1 ml of solution containing 2 mg sodium taurochorate and 1000 U trypsin dissolved in physiological saline was injected retrogrodely. After removal of the clip and tube, the common bile duct was ligated and the abdomen was closed. Note, the test substance was dissolved in an injective 5% glucose solution, and in the case of a continuous infusion, the solution was administered over 80 minutes starting from 10 minutes before the generation of pancreatitis. In the case of oral administration, the test substance was administered through an oral catheter 30 minutes before the generation of pancreatitis. After 24 hours and 48 hours from the generation of pancreatitis, the survival ratio of the animals was calculated and compared with a control group.

Another data set deals with T1, human plasma kallikrein (Homo sapiens, UniProt P03952).
T1 construct: 50 µl of 0.12 units/ml human plasma kallikrein solution
As to the kind of experiment: Anti-plasma kallikrein activity: inhibition of S-2302 degradation. Format: biochemical. As to conditions: substrate S-2302, 37°C, pH 7.8; read-out: Plasma kallikrein S-2302 (I50). The procedure: 2) Assay of anti-plasma kallikrein activity Assay method of inhibition of S-2302 degradation
The test substance was dissolved in a 0.05 M Tris-HC1 (pH 7.8) buffer to make a total volume of 400 µl, and 50 µl of a 2 mM S-2302 solution was added to the solution. After incubation at 37°C for 5 minutes in an incubator, an addition of 50 µl of 0.12 units/ml human plasma kallikrein solution, and incubation at 37°C for 5 minutes, the reaction was terminated by an addition of 50 µl of 50% acetic acid.

A short description of another data set: in vivo. The note with it: mouse, intravenous, ICR male mice, up-and-down method, read-out: Acute toxicity (LD50). The procedure: ICR male mice 5 to 10 weeks old were used. The test substance was dissolved in a 5% dimethylsulfoxide aqueous solution, and the solution was intravenously administered in an amount of 0.1 to 0.2 ml/10 g body weight. An LD50 value was calculated by up-and-down method.

The target in data set [2] is T2, human plasmin (Homo sapiens, UniProt P00747).
T2 construct: 50 µl of 0.2 casein units/ml of human plasmin
As to the kind of experiment: Anti-plasmin activity: inhibition of fibrinolysis (fibrin clot lysis time). Format: biochemical. As to conditions: concentration giving a fibrin clot lysis time twice that of control, 37°C, pH7.4; read-out: Plasmin Fibrin (I50).

Data set [3] has as its target T3, bovine factor Xa (Bos taurus, UniProt P00743).
T3 construct: 0.05 ml of 0.3 vial/ml bovine factor Xa
As to the kind of experiment: Anti-FXa activity: inhibition of S-2222 degradation. As to conditions: substrate S-2222, 37°C, pH 8.3; read-out: FXa S-2222 (I50). Format: biochemical. The procedure:
4) Assay of anti-FXa activity Assay method of inhibition of S-2222 degradation
To 0.4 ml of the test substance dissolved in a 0.05 M Tris-HC1 (pH 8.3) buffer is added 0.05 ml of 3 mM S-2222 solution, and after incubation at 37°C for about 4 minutes, an addition of 0.05 ml of 0.3 vial/ml bovine factor Xa, and a reaction at 37°C for 4 minutes, the - reaction was terminated by adding 0.05 ml of 50% acetic acid.

Another data set relates to experimental shock. Put plainly: Effect on experimental shock (endotoxin-induced), survival ratio. Format: in vivo, ICR-mice. As to conditions: dose of 30 mg/kg intraperitoneally 15 minutes before endotoxin 40 mg/kg, mouse. The procedure: [IV] Effect on experimental shock
ICR-mice, body weight of about 25 g, were starved overnight. The test substance was dissolved in an injective 5% glucose solution and intraperioneally administered, and 15 minutes later, endotoxin (E. coli 0127:B8, Difco, U.S.) dissolved in a physiological saline was intraperioneally administered to an amount of 40 mg/kg body weight.

Data set [4] in a line: Measurement of half life in blood. Format: in vivo. The note with it: rat, iv; administered to the tail vein, SD-rats, plasma, HPLC. The procedure:
[VI] Measurement of half life in blood
SD-rats 6 to 7 weeks old were used. The test substance was dissolved in an injective 5% glucose solution and administered to the tail vein. After the administration, blood samples were periodically obtained from the great vein and placed into heparinized test tubes. Plasma was separated by centrifugation and the test substance was extracted with ethyl acetate. After removal of the solvent, the residue was dissolved in 200 µl of methanol, and analyzed by high performance liquid chromatography. From the change of the concentration of the test substance in blood with time, a half life thereof in blood was calculated.

Data set [5] has as its target T2, human plasmin. Put plainly: Anti-plasmin activity: inhibition of S-2251 degradation. Format: biochemical. As to conditions: substrate S-2251, 37°C, pH7.4; read-out: Plasmin S-2251 (I50). The procedure:
ii) Assay method of inhibition of S-2251 degradation
The test substance was dissolved in a 0.05 M Tris-HC1 (pH7.4) buffer to make a total volume of 400 µl, and 50 µl of a 3 mM S-2251 solution was added to the solution. The mixture was incubated at 37°C for 5 minutes in an incubator, and after the addition of 50 µl of 0.2 casein units/ml of human plasmin, and incubation at 37°C for 4 minutes, the reaction was terminated by an addition of 50 µl of 50% acetic acid.

In another data set the test system is experimental DIC. As to the kind of experiment: Effect on experimental DIC and MOF (endotoxin-induced). Format: in vivo, SD-rats. The note with it: rat, 4 hours after endotoxin 10 mg/kg; for CPK: Table 5-1. The procedure:
[III] Effect on experimental DIC
SD-rats, body weight of about 200 g, were starved overnight. Sodium pentobarbital was intraperioneally administered to anesthetize a rat, and then a cannula was inserted to the femoral vein, and the test substance dissolved in an injective 5% glucose solution was continually infused. Then, 10 minutes from the start of the injection, endotoxin (E. coli 0127:B8, Difco, U.S.) dissolved in physiological saline was injected through the tail vein to an amount of 10 mg/kg body weight, and 4 hours from the administration of endotoxin, the abdomen was opened, blood was obtained from the abdominal aorta, and platelets (Plt), fibrinogen (Fbg), fibrin degradation product (FDP), glutamic oxaloacetic transamirase (GOT), creatinine phosphokinase (CPK), and blood urin nitrogen (BUN) were measured.

Data set [6] concerns the target T3, bovine factor Xa. Put plainly: Anti-FXa activity: inhibition of S-2222 degradation. Format: biochemical. As to conditions: Table 3-2, existing control drugs; substrate printed as S-2238; read-out: FXa S-2238 (I50).

SMILES strings stand for the structures. Where two headings read alike, the source gives them in different places.

T1 sequence (P03952 391-638 limits assumed): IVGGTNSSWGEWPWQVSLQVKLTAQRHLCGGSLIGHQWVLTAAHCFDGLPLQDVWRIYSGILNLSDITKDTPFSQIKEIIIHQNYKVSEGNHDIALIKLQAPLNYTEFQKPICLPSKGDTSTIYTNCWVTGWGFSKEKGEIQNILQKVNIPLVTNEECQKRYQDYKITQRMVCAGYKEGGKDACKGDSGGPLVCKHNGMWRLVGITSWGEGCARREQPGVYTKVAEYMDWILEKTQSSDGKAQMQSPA
T1 sequence (P03952 20-390 partner limits assumed): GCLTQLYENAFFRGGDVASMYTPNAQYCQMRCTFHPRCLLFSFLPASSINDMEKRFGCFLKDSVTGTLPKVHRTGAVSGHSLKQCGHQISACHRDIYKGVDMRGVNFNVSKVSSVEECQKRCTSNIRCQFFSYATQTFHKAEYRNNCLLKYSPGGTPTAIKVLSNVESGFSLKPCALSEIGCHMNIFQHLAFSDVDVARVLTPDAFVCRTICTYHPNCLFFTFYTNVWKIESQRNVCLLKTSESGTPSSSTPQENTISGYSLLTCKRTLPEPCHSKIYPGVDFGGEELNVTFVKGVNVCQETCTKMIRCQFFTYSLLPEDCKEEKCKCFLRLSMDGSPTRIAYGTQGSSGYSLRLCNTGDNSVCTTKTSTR
T2 sequence (P00747 581-810 limits assumed): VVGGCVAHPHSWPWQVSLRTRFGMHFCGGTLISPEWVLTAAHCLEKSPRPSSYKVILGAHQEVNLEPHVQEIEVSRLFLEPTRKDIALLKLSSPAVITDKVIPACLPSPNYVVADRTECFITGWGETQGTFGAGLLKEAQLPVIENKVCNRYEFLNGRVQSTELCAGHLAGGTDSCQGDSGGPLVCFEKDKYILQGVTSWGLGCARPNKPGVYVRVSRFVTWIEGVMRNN
T2 sequence (P00747 97-580 partner limits assumed): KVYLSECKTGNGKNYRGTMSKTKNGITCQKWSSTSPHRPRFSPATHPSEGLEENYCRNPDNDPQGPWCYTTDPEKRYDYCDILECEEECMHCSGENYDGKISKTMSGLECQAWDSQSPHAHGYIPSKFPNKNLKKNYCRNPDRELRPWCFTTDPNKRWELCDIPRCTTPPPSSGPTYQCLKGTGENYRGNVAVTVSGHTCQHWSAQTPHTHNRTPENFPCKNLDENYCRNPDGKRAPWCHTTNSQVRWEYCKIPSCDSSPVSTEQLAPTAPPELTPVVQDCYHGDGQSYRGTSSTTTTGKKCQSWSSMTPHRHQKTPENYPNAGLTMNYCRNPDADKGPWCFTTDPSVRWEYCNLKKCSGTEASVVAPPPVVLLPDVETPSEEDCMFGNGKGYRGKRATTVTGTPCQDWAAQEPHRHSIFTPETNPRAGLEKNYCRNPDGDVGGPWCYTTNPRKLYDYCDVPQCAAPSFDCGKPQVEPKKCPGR
T3 sequence (P00743 234-492 limits assumed): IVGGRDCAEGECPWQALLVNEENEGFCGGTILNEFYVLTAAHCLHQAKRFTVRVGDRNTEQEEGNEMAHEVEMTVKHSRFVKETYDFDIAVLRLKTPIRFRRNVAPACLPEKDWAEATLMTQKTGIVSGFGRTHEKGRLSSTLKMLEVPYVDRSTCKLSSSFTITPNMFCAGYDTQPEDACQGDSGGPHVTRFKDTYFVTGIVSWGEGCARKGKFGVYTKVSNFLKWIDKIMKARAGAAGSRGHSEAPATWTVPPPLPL
T3 sequence (P00743 41-180 partner limits assumed): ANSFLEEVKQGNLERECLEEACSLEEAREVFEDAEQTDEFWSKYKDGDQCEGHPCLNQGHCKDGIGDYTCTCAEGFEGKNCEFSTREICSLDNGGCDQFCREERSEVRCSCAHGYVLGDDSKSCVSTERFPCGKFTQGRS

Turning to `CC(=O)c1ccc(NC(=O)[C@H](Cc2ccc(OCc3ccccn3)cc2)NC(=O)[C@H]2CC[C@H](CN)CC2)cc1` [Compound 6], the IC50 on human urokinase was found to be 75 µM. Besides, in data set [1], the “Effect on experimental pancreatitis Survival ratio(%) After 24 hours” value is reported as 62.5% and the “Effect on experimental pancreatitis Survival ratio(%) After 48 hours” value is recorded as 54.1%. Moreover, in [1] (survival ratio), the “Effect on experimental pancreatitis (100 mg/kg p.o.) After 24 hours” value stood at 66.7 and the “Effect on experimental pancreatitis (100 mg/kg p.o.) After 48 hours” value was found to be 53.3. Besides, on human plasma kallikrein, the IC50 is 2000 nM. In addition, in the data set “in vivo”, the LD50 was 85 mg/kg. On human plasmin [2], the IC50 amounted to 1400 nM. At bovine factor Xa [3], the IC50 is 160 µM. For the same compound, the “Effect on experimental shock (Survival ratio (%) after 24 hours)” value in the data set on experimental shock is recorded as 70%. The same compound registered a half-life in data set [4] of 12.2 min. Further, the IC50 on human plasmin [5] turned out to be 2.7 µM. Moreover, in the data set on experimental DIC (Dose 1 μg/kg/min infusion), the BUN is 36 ± 2 mg/dL, the FDP was 32 to 65 µg/mL, the Fbg is 140 ± 18 mg/dL and the GOT is 217 ± 29 U/ml. In the data set on experimental DIC (Dose 1 μg/kg/min infusion), the Plat is 68 ± 11 x 10^4/μl. In the data set on experimental DIC (Dose 10 μg/kg/min infusion), this compound had a BUN of 26 ± 2 mg/dL, an FDP of 8 to 32 µg/mL, a Fbg of 179 ± 15 mg/dL and a GOT of 196 ± 28 U/ml. In the data set on experimental DIC (Dose 10 μg/kg/min infusion), the Plat was 95 ± 14 x 10^4/μl and the CPK is 22 ± 6 U/1.

Turning to `NC[C@H]1CC[C@H](C(=O)N[C@@H](Cc2ccc([N+](=O)[O-])cc2)C(=O)Nc2ccc(C(=O)c3ccccc3)cc2)CC1` [Compound 10], the IC50 on human urokinase was 5 µM. Besides, in data set [1], the “Effect on experimental pancreatitis Survival ratio(%) After 24 hours” value is 50.0% and the “Effect on experimental pancreatitis Survival ratio(%) After 48 hours” value is on record as 33.3%. In addition, in data set [1] (survival ratio), the “Effect on experimental pancreatitis (100 mg/kg p.o.) After 24 hours” value is 66.7 and the “Effect on experimental pancreatitis (100 mg/kg p.o.) After 48 hours” value is 53.3. The IC50 at human plasma kallikrein was 2700 nM. For the same compound, the LD50 in the data set “in vivo” came out at 85 mg/kg. Moreover, on human plasmin [2], the IC50 worked out at 1800 nM. The “Effect on experimental shock (Survival ratio (%) after 24 hours)” value with experimental shock is 79%. In data set [4], this compound gave a half-life of 6.8 min. Further, the IC50 on human plasmin [5] is 7 µM. In the data set on experimental DIC (Dose 10 μg/kg/min infusion), the BUN amounted to 32 ± 2 mg/dL, the FDP was in the range of 16 to 128 µg/mL, the Fbg was 109 ± 30 mg/dL and the GOT was found to be 302 ± 29 U/ml. Moreover, the Plat in the data set on experimental DIC (Dose 10 μg/kg/min infusion) was 68 ± 8 x 10^4/μl. In the data set on experimental DIC (Dose 100 μg/kg/min infusion), this compound displayed a BUN of 30 ± 2 mg/dL, an FDP of 16 to 128 µg/mL, a Fbg of 128 ± 32 mg/dL and a GOT of 258 ± 60 U/ml. In the data set with experimental DIC (Dose 100 μg/kg/min infusion), the Plat was 66 ± 10 x 10^4/μl and the CPK is 20 ± 5 U/1.

For `N=C(N)c1ccc2cc(OC(=O)c3ccc(N=C(N)N)cc3)ccc2c1` [FUT-175, nafamostat mesilate, reference compound], the IC50 at human urokinase stood at 0.01 µM; at human plasma kallikrein it was 80 nM; on bovine factor Xa [6], 5.8 µM. In addition, in data set [1] (survival ratio, 50 μg/kg/min x 80 min), the “Effect of existing control drug on experimental pancreatitis After 24 hours” value is 33.3. Moreover, in “in vivo”, the LD50 is 24 mg/kg. In [4], this compound returned a half-life of 2 to 3 min.
